Assays:
Experiment in all cases: drug sensitivity score (DSS) from 5-point dose-response viability curve (DSS (area-under-curve based score)); higher = more sensitive (stronger growth inhibition or killing); extreme values may be limits of the assay
Conditions in all cases: exposure time: 72 h; concentration range: 5 concentrations over 10,000-fold range
Kuramochi = test system: Kuramochi
In short: (§1)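 For the drug sensitivity score, obtained per cell line and drug in Breeze software, larger values mean greater sensitivity. No response corresponds to a score of zero. Ovarian cancer and normal ovarian cells were seeded at 1,500 per well into 384-well plates already holding acoustically dispensed drugs (Echo 550, DMSO or water, five concentrations over a 10,000-fold range) and incubated 3 days at 37°C, 5% CO2. CellTiter-Glo luminescence on a PHERAstar FS gave the viability readout.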

HOSE2C = test system: HOSE2C
In short: as §1

OVCAR8 = test system: OVCAR8
In short: as §1

HOSE1C = test system: HOSE1C
In short: as §1

OVCAR4 = test system: OVCAR4
In short: as §1

OV90 = test system: OV90
In short: as §1

JHOS2 = test system: JHOS2
In short: as §1

OVCAR5 = test system: OVCAR5
In short: as §1

COV362 = test system: COV362
In short: as §1

COV318 = test system: COV318
In short: as §1

CAOV3 = test system: CAOV3
In short: as §1

Ovsaho = test system: Ovsaho
In short: as §1

Row | Compound | drug sensitivity score (Kuramochi) | drug sensitivity score (HOSE2C) | drug sensitivity score (OVCAR8) | drug sensitivity score (HOSE1C) | drug sensitivity score (OVCAR4) | drug sensitivity score (OV90) | drug sensitivity score (JHOS2) | drug sensitivity score (OVCAR5) | drug sensitivity score (COV362) | drug sensitivity score (COV318) | drug sensitivity score (CAOV3) | drug sensitivity score (Ovsaho)
1 | CNC(=O)c1ccc(N2C(=S)N(c3cnc(C#N)c(C(F)(F)F)c3)C(=O)C23CCC3)cc1F [Apalutamide] | 0 | 0 | 0 | 0 | 0 | 0 | 0 | 0 | 0 | 0 | 0 | 0
2 | N#CC1(c2ccc(NC(=O)c3cccnc3NCc3ccncc3)cc2)CCCC1 [Apatinib] | 0 | 0 | 0 | 0 | 0 | 0 | 0 | 0.5 | 0 | 0 | 0 | 0.3
3 | O=C(Nc1ccc(OC(F)(F)Cl)cc1)c1cnc(N2CC[C@@H](O)C2)c(-c2cc[nH]n2)c1 [Asciminib] | 0.2 | 0 | 0 | 0 | 0.3 | 0 | 0 | 0.4 | 0 | 0 | 0 | 0
4 | CC(C)c1c(C(=O)Nc2ccccc2)c(-c2ccccc2)c(-c2ccc(F)cc2)n1CC[C@@H](O)C[C@@H](O)CC(=O)O [Atorvastatin] | 1 | 10.8 | 3.6 | 10.1 | 0 | 2.3 | 0.3 | 0.4 | 0 | 0 | 0.8 | 5.2
5 | CC(=O)OC[C@H]1O[C@@H]([S-])[C@H](OC(C)=O)[C@@H](OC(C)=O)[C@@H]1OC(C)=O.CCP(CC)CC.[Au+] [Auranofin] | 2.9 | 13.3 | 3.4 | 13.3 | 1.7 | 3.5 | 4.1 | 1.3 | 0 | 5 | 9.3 | 7.8
6 | CNC(=O)c1ccccc1Sc1ccc2c(/C=C/c3ccccn3)n[nH]c2c1 [Axitinib] | 0.4 | 6.2 | 2 | 1.9 | 0.2 | 0.1 | 0 | 0.8 | 0 | 0 | 5 | 0.8
7 | Nc1ncn([C@@H]2O[C@H](CO)[C@@H](O)[C@H]2O)c(=O)n1 [Azacitidine] | 0.9 | 0 | 3.4 | 0 | 1.6 | 3.8 | 4.4 | 2.2 | 0.7 | 1.1 | 1.7 | 3.5
8 | Cc1cc(-c2nc(-c3ccc(OC(F)(F)F)cc3)no2)nn1Cc1ccnc(N2CCN(C3CC3)CC2)c1 [BAY 87-2243] | 2.7 | 0 | 28.8 | 0 | 4.7 | 23.3 | 0 | 4.8 | 0 | 2.7 | 8.4 | 1.6
9 | CC[C@@H]1C(=O)N(C)c2cnc(Nc3ccc(C(=O)NC4CCN(C)CC4)cc3OC)nc2N1C1CCCC1 [BI 2536] | 11.4 | 8.7 | 23.5 | 12.5 | 3.9 | 15 | 11.9 | 17.7 | 2.1 | 3.9 | 18.3 | 19.7
10 | COc1c(C)cnc(Cn2cnc3c(Cl)nc(N)nc32)c1C [BIIB021] | 9 | 20.5 | 19.7 | 15 | 9.9 | 18.5 | 20.6 | 17.3 | 9.5 | 7 | 16 | 3.3
11 | CC1(C)C(C(=O)Nc2ccc(S(=O)(=O)c3ccc(NC(=O)C4C(C)(C)C4(C)C)cc3)cc2)C1(C)C [BRD7116] | 2.1 | 0 | 0 | 0 | 2.1 | 0 | 0.7 | 2.1 | 0 | 0.1 | 0.3 | 3.8
12 | O=C(Nc1cccc(Nc2ncc(Br)c(NCCc3cnc[nH]3)n2)c1)N1CCCC1 [BX-912] | 1.4 | 8 | 4.7 | 4.5 | 3.7 | 7.4 | 2.5 | 2.4 | 1.3 | 0.4 | 10.3 | 3.5
13 | Cc1ccc(NC(=O)c2ccc(CN3CC[C@H](N(C)C)C3)c(C(F)(F)F)c2)cc1Nc1nccc(-c2cncnc2)n1 [Bafetinib] | 0 | 0 | 0 | 0 | 0 | 3 | 0 | 0 | 0 | 0 | 0 | 0
14 | CCS(=O)(=O)N1CC(CC#N)(n2cc(-c3ncnc4[nH]ccc34)cn2)C1 [Baricitinib] | 0 | 0 | 0 | 0 | 0 | 0 | 0 | 0 | 0 | 0 | 0 | 0
15 | O=C(/C=C/c1cccc(S(=O)(=O)Nc2ccccc2)c1)NO [Belinostat] | 10.2 | 18.1 | 18.2 | 23.4 | 8.6 | 13.5 | 10 | 17.2 | 7.3 | 9.1 | 13.6 | 11.7
16 | N#CC(c1ccnc(OCc2ccc(CN3CCOCC3)cc2)n1)c1nc2ccccc2s1 (stereo not drawn) [Bentamapimod] | 2 | 0.3 | 2.3 | 0 | 1.8 | 5.5 | 1.4 | 4.5 | 3.8 | 1.3 | 1.5 | 1.1
17 | C=C(c1ccc(C(=O)O)cc1)c1cc2c(cc1C)C(C)(C)CCC2(C)C [Bexarotene] | 0.1 | 0 | 0.1 | 0 | 0 | 1.3 | 1.3 | 0 | 0 | 0.1 | 1.5 | 0
18 | CC(O)(CS(=O)(=O)c1ccc(F)cc1)C(=O)Nc1ccc(C#N)c(C(F)(F)F)c1 (stereo not drawn) [Bicalutamide] | 0.2 | 0 | 0.3 | 8.4 | 0.5 | 0 | 0 | 0.7 | 0 | 0 | 0 | 0
19 | CCNC(=O)CCC/C=C\C[C@@H]1[C@@H](/C=C/[C@@H](O)CCc2ccccc2)[C@H](O)C[C@@H]1O [Bimatoprost] | 0 | 0 | 0 | 0 | 0 | 0 | 0 | 0 | 0 | 0 | 0 | 0
20 | Cn1cnc2c(F)c(Nc3ccc(Br)cc3F)c(C(=O)NOCCO)cc21 [Binimetinib] | 3.5 | 0 | 0 | 0 | 1.7 | 13.4 | 1.5 | 7.1 | 1.3 | 0 | 7.6 | 6.2
21 | Cc1sc2c(c1C)C(c1ccc(Cl)cc1)=N[C@@H](CC(=O)Nc1ccc(O)cc1)c1nnc(C)n1-2 [Birabresib] | 12.5 | 13.4 | 12.6 | 15.1 | 8.1 | 10.2 | 5.4 | 10.8 | 2.3 | 1.7 | 13.1 | 12.9
22 | CC[C@H](NC(=O)[C@H](C)NC)C(=O)N1C[C@@H](O)C[C@H]1Cc1c(-c2[nH]c3cc(F)ccc3c2C[C@@H]2C[C@H](O)CN2C(=O)[C@H](CC)NC(=O)[C@H](C)NC)[nH]c2cc(F)ccc12 [Birinapant] | 0.4 | 0 | 1.9 | 0 | 12.6 | 0.8 | 5.6 | 0 | 0 | 0.2 | 9.2 | 11.6
23 | Cc1c(N)nc([C@H](CC(N)=O)NC[C@H](N)C(N)=O)nc1C(=O)N[C@H](C(=O)N[C@H](C)[C@@H](O)[C@H](C)C(=O)N[C@H](C(=O)NCCc1nc(-c2nc(C(=O)NCCC[S+](C)C)cs2)cs1)[C@@H](C)O)[C@@H](OC1OC(CO)C(O)C(O)C1OC1OC(CO)C(O)C(OC(N)=O)C1O)c1cnc[nH]1 (stereo partly drawn) [Bleomycin] | 0 | 4.5 | 5.6 | 2.8 | 0.6 | 2.6 | 0.8 | 2.3 | 0 | 0 | 2.2 | 1
24 | CC(C)C[C@H](NC(=O)[C@H](Cc1ccccc1)NC(=O)c1cnccn1)B(O)O [Bortezomib] | 9.3 | 24.4 | 23 | 27.4 | 24.6 | 22.8 | 24.5 | 23.9 | 24.7 | 28.3 | 26.4 | 17.8
25 | COc1cc(Nc2c(C#N)cnc3cc(OCCCN4CCN(C)CC4)c(OC)cc23)c(Cl)cc1Cl [Bosutinib] | 8.8 | 6.2 | 6.7 | 6.8 | 5.7 | 8.7 | 7 | 9.4 | 8.5 | 2 | 8 | 10.5
26 | COc1cc(N2CCC(N3CCN(C)CC3)CC2)ccc1Nc1ncc(Cl)c(Nc2ccccc2P(C)(C)=O)n1 [Brigatinib] | 3.5 | 2.9 | 0 | 0.3 | 1.7 | 4 | 2.1 | 3.7 | 1.6 | 3.5 | 3.3 | 4.3
27 | Cc1cc2c(F)c(Oc3ncnn4cc(OC[C@@H](C)O)c(C)c34)ccc2[nH]1 [Brivanib] | 0 | 0 | 0 | 0 | 0 | 0 | 0 | 0 | 0 | 0 | 0 | 0
28 | CCC/C=C/C=C/C(=O)O[C@H]1/C(=C/C(=O)OC)C[C@H]2C[C@H]([C@@H](C)O)OC(=O)C[C@H](O)C[C@@H]3C[C@H](OC(C)=O)C(C)(C)[C@](O)(C[C@@H]4C/C(=C/C(=O)OC)C[C@H](/C=C/C(C)(C)[C@]1(O)O2)O4)O3 [Bryostatin 1] | 0 | 1.6 | 0 | 10.3 | 1.1 | 1.4 | 0 | 0.2 | 8.9 | 1.4 | 0.1 | 0
29 | Nc1cc(C(F)(F)F)c(-c2cc(N3CCOCC3)nc(N3CCOCC3)n2)cn1 [Buparlisib] | 6.1 | 8.8 | 7.7 | 8.6 | 5.3 | 5.1 | 4.6 | 8.8 | 3.8 | 4.6 | 8.7 | 6.5

From the supplement of paper PMC11616607
